This note sets out measurements from PubChem BioAssay (NCI).

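48-hour exposure; five concentrations; linearly interpolated endpoints. TGI denotes the concentration required for complete inhibition of growth.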 A value given as a limit tells only on which side of the number the result lay.

What all share (test): NCI tumour cell line growth inhibition, 48 h
In assay [1] the test system is SN12K1 renal.
Assay [2] has as its system P388 leukemia.
The subject of assay [3] is LXFL 529 NSCLC.
The subject of assay [4] is RXF-631 renal.

Take `C=C1C(C)C2C(Cc3ccccc3)NC(=O)C23OC(=O)/C=C\CC(=O)CCC(C)C/C=C/C3C1O` (stereo not drawn): the TGI stood at 3.43 µM in assay [1] and 0.385 µM in assay [2]. For the compound `Nc1c(S(=O)(=O)O)cc(S(=O)(=O)O)c2ccc(N=Nc3ccc(/C=C/c4ccc(N=Nc5ccc6c(S(=O)(=O)O)cc(S(=O)(=O)O)c(N)c6c5O)cc4S(=O)(=O)O)c(S(=O)(=O)O)c3)c(O)c12`, the TGI in assay [1] and in assay [2] was greater than 100 µM throughout. As to `Cc1c2ccncc2c(C)c2c1[nH]c1ccc(OCCN(C)C)cc12`, the TGI is 0.381 µM in assay [1] and 0.0675 µM in assay [2]. For `CCCCN(C)/N=N/c1nc[nH]c1C(N)=O`, the TGI in assay [1] and in assay [2] was greater than 100 µM each time. In assay [3], `CN(C)CC1CCC(CN(C)C)C(=O)C1=O` (stereo not drawn) came in with a TGI of 3.09 µM. For the compound `O=C1C2C=CC(n3[nH]c(=O)n(Cc4ccccc4)c3=O)CC2C(=O)N1c1ccc(Br)cc1` (stereo not drawn), the TGI in assay [3] was greater than 100 µM. `O=C(Nc1nn[nH]n1)c1nc(-c2ccccc2)cc(=O)[nH]1` gave a TGI in assay [3] greater than 100 µM. With `O=c1c2ccccc2nc2ccc3c(Cl)[nH][nH]c3c12`, the TGI in assay [3] and in assay [4] was greater than 100 µM throughout.
